The results in this text go back to US9644039B2, “Acid-degradable and bioerodible modified polyhydroxylated materials” (The Regents of the University of California, priority 2008, dated 2017).

One experiment concerns B16 tumor. The experiment can be described thus: Chemotherapy of subcutaneous B16 tumor with DOX particles. It counts as in vivo, mice. As to conditions: injected after 3 days. On the procedure: To determine the maximum in vivo tolerated dose for the particles, a varying concentration of doses of 0 (PBS), 20, 40, and 60 mg/kg DOX equivalents are injected intravenously. The weights and general health of the mice are monitored until the ninth day after injection. Based on weight loss, the maximum injection of particles tolerated in mice is calculated. Once determined, mice are implanted subcutaneously with a B16 tumor. After 3 days mice are injected with PBS, free DOX, Ac-DEX particles encapsulating DOX, pegylated-Ac-DEX particles, or Doxcil (a commercially available doxorubicin/liposome conjugate). Mice are monitored for tumor growth. Once the tumor reaches an average diameter of 1.5 cm, the mice are sacrificed.

The subject of the next experiment is RAW macrophages. The experiment can be described thus: B3Z / LacZ MHC Class I antigen presentation assay. Type of experiment: cell-based. The conditions noted are these: APCs incubated with free or encapsulated ovalbumin. On the procedure: The LacZ MHC Class I antigen presentation assay, as described by Sanderson, S.; Shastri, N. in Inter. Immun. 1994, 6, 369-376, is performed with degradable polymer particles made according to Example 3 with the modified hydroxylated polymers of Example 2 to test their ability to deliver proteins into APCs for Class I antigen presentation. This experiment uses the LacZ B3Z hybridoma, which is a CTL that recognizes the peptide sequence, […] (SEQ ID NO: 8), from ovalbumin, complexed with the MHC Class I molecule H-2K^b. This hybridoma produces β-galactosidase after encountering APCs that present […] as a Class I antigen, thus allowing Class I antigen presentation to be quantified by measuring β-galactosidase activity.
In order to assess the feasibility of using Ac-DEX based materials for vaccine applications, OVA-loaded Ac-DEX particles were incubated with RAW macrophages. […] 1×10^4 RAW macrophages were seeded overnight in a 96 well plate and subsequently incubated with OVA-containing Ac-DEX particles or free OVA. […] After six hours of incubation, Ac-DEX particles increased MHC class I presentation of the OVA-derived CD8^+ T-cell epitope, […], by a factor of 16 relative to free OVA (FIG. 15) measured by the B3Z assay (Karttunen, J.; Shastri, N., Proc. Natl. Acad. Sci. U.S.A. 1991, 88, 3972-6).

The next experiment relates to MO5 tumor cells. The experiment can be described thus: Tumor prophylactic vaccination, MO5 tumor challenge. Type of experiment: in vivo, Mice. The conditions noted are these: immunized subcutaneously day 0, 200,000 MO5 tumor cells day 7. As to the method:
In one embodiment, Ac-DEX particles will encapsulate OVA similar to (Example 9 with B3Z assay) and be used in a tumor prophylactic and treatment vaccination against cancer. MO5 is a B16 tumor cell line that expresses OVA (Falo et al. 1995, Targeting antigen into the phagocytic pathway in vivo induces protective tumour immunity. Nat Med 1:649-53). Mice are immunized subcutaneously with 2 mg of Ac-DEX particles with a 2.5 wt % loading of OVA (50 μg of OVA) in the left flank on day 0. Other groups include mice which are injected with either OVA, saline, or Ac-DEX particles encapsulating OVA and an immunostimulatory CpG stimulant. We have shown earlier that adding CpG with acid labile particles drastically increases the efficacy of treatment(Standley et al. 2007, Incorporation of CpG oligonucleotide ligand into protein-loaded particle vaccines promotes antigen-specific CD8 T-cell immunity. Bioconjug Chem 18:77-83). CpG can be either co-injected with the particles, or it can be encapsulated inside the particles. […]
After injection, the tumor growth is monitored by measuring two perpendicular axes using calipers. Tumor volume is then calculated using the equation, volume=[…], with the length being the longest diameter and the width being the shortest diameter of the two perpendicular measurements. […]

Consider `COc1cccc2c1C(=O)c1c(O)c3c(c(O)c1C2=O)C[C@@](O)(C(=O)CO)C[C@@H]3O[C@H]1C[C@H](N)[C@H](O)[C@H](C)O1` [free Dox, doxorubicin], for which the “tumor growth (order of groups)” value with B16 tumor was “fastest tumor growth followed by, free Dox, Ac-DEX particles, Doxcil and finally PEGylated Ac-DEX particles”.
In the case of “free ovalbumin: ovalbumin, model protein antigen, not encapsulated”, the “activation of CTLs (Class I antigen presentation)” value in the experiment on RAW macrophages is recorded as “not able to activate CTLs”. Further, the “tumor onset, tumor growth and survival time” value in the experiment with MO5 tumor cells is “fastest tumor onset and tumor growth”.
